For series [1], the system named is H9. Description: Cytotoxicity against human H9 cells at 6.25 uM. The note with it: h9, 6.25 µM. It counts as cell-based.
Series [2] deals with H9. Description: Cytotoxicity against human H9 cells at 1.25 uM. It counts as cell-based. The note with it: h9, 1.25 µM.
In series [3] the test system is Human immunodeficiency virus 1. Description: Antiviral activity against HIV1 3B replication in human H9 cells at 1.5 uM after 3 days by p24 antigen capture assay relative to control. It is filed as functional. As to conditions: Human immunodeficiency virus 1, 3B, H9, 72 h.
The subject of series [4] is Human immunodeficiency virus. The experiment in a line: Inhibition of HIV reverse transcriptase assessed as incorporation of [3H]dTMP at 100 uM.
Series [5] concerns Human immunodeficiency virus. Description: Inhibition of HIV reverse transcriptase assessed as incorporation of [3H]dTMP at 10 uM.
For series [6], the system named is Human immunodeficiency virus 1. Description: Antiviral activity against HIV1 3B replication in human H9 cells at 7.7 uM after 3 days by p24 antigen capture assay relative to control. As to conditions: Human immunodeficiency virus 1, 3B, H9, 72 h. It counts as functional.
Series [7] deals with Human immunodeficiency virus. The experiment in a line: Inhibition of HIV reverse transcriptase assessed as incorporation of [3H]dTMP at 30 uM.
Series [8] is described as follows: Cytotoxicity against human H9 cells at 25 uM. The note with it: read-out: INH. It is filed as cell-based.
The subject of series [9] is Human immunodeficiency virus 1. Description: Antiviral activity against HIV1 3B replication in human H9 cells at 30.8 uM after 3 days by p24 antigen capture assay relative to control. It counts as functional. The note with it: Human immunodeficiency virus 1, 3B, H9, 72 h.
The test system of series [10] is Human immunodeficiency virus 1. Description: Antiviral activity against HIV1 3B replication in human H9 cells at 25 uM after 3 days by p24 antigen capture assay relative to control. It is filed as functional. The note with it: Human immunodeficiency virus 1, 3B, H9, 72 h.
For series [11], the system named is Human immunodeficiency virus 1. The experiment in a line: Antiviral activity against HIV1 3B replication in human H9 cells at 1.25 uM after 3 days by p24 antigen capture assay relative to control. It is filed as functional. As to conditions: Human immunodeficiency virus 1, 3B, H9, 72 h.
Series [12] deals with Human immunodeficiency virus 1. Description: Antiviral activity against HIV1 3B replication in human H9 cells at 6.25 uM after 3 days by p24 antigen capture assay relative to control. It counts as functional. As to conditions: Human immunodeficiency virus 1, 3B, H9, 72 h.
Series [13] has as its system Human immunodeficiency virus. Description: Inhibition of HIV reverse transcriptase assessed as incorporation of [3H]dTMP at 100 nM.
Series [14] deals with Human immunodeficiency virus. Description: Inhibition of HIV reverse transcriptase.
The target of series [15] is T1, DNA polymerase subunit gamma-1 (Homo sapiens) (UniProt P54098).
T1 sequence (whole entry): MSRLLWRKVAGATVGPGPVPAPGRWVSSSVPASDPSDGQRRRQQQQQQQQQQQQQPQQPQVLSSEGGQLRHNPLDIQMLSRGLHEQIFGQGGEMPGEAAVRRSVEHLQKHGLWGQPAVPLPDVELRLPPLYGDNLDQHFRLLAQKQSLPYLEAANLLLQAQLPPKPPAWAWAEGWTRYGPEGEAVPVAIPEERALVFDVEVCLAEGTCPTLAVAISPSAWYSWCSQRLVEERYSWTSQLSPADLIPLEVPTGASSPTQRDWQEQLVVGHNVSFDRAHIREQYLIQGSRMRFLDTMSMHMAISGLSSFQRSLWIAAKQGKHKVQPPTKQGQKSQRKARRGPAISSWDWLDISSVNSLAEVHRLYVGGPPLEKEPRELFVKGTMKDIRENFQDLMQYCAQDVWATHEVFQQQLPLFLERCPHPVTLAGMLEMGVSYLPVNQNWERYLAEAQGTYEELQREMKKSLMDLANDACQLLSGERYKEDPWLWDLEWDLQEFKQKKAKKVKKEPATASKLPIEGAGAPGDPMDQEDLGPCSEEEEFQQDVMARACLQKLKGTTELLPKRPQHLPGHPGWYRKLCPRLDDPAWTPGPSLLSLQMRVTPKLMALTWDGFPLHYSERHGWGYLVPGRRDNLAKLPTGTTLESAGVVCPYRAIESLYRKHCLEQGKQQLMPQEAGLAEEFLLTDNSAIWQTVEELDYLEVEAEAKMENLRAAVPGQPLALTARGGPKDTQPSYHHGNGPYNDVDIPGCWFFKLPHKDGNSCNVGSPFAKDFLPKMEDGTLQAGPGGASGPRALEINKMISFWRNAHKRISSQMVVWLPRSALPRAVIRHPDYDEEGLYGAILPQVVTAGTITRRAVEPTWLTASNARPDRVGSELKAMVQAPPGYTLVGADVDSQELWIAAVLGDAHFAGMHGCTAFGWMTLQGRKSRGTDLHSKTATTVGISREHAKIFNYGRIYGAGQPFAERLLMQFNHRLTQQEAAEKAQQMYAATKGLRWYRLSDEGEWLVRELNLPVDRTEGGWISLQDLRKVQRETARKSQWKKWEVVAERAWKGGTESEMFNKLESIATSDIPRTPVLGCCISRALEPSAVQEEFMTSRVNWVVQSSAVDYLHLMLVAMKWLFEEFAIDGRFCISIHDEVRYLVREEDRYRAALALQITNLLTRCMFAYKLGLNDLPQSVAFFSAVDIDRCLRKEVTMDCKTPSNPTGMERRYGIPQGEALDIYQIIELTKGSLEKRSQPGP
Description: Inhibition of human DNA polymerase gamma.

Series [16] has as its target DNA polymerase beta (Homo sapiens) (UniProt P06746). Description: Inhibition of human DNA polymerase beta.
In series [17] the target is T2, DNA polymerase alpha catalytic subunit (Homo sapiens) (UniProt P09884).
T2 sequence (whole entry): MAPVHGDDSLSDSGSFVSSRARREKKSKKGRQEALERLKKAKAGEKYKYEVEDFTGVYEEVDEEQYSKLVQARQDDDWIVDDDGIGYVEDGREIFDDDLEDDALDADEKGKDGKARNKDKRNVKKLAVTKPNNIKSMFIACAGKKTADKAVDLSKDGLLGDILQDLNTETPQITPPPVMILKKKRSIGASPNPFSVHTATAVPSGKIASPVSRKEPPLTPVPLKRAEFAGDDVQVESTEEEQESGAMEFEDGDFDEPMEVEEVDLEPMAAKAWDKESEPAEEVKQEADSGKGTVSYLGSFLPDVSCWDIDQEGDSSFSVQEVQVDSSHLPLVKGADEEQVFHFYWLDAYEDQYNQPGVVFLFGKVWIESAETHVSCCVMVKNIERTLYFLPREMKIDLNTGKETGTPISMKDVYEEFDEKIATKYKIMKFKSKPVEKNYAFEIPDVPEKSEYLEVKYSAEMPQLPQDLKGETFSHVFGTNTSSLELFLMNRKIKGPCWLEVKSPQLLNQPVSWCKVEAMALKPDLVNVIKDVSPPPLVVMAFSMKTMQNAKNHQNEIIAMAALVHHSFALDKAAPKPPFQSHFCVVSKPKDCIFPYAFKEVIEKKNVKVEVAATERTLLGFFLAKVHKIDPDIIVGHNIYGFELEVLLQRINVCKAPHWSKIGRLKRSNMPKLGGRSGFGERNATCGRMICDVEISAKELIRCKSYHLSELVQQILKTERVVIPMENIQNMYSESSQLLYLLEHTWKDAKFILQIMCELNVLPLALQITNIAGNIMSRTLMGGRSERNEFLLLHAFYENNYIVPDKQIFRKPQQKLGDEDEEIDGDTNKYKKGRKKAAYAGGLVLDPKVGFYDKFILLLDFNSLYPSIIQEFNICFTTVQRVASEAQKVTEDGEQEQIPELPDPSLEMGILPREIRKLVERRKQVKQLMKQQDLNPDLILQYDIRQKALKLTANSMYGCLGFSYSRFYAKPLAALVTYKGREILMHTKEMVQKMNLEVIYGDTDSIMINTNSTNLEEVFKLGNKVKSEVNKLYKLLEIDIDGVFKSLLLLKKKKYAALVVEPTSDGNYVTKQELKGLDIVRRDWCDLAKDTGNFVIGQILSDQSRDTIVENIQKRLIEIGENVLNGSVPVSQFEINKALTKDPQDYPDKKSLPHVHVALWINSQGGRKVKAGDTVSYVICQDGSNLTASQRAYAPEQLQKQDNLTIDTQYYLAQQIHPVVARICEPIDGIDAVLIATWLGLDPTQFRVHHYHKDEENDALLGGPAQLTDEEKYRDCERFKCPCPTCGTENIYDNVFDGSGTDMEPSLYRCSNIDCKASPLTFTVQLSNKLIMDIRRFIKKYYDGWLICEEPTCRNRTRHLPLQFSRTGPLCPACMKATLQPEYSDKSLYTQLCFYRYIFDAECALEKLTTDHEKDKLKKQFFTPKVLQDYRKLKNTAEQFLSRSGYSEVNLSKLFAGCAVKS
The experiment in a line: Inhibition of human DNA polymerase alpha.

The subject of series [18] is Human immunodeficiency virus. The experiment in a line: Inhibition of HIV reverse transcriptase assessed as incorporation of [3H]dTMP at 100 ug/ml.
The test system of series [19] is Human immunodeficiency virus. Description: Inhibition of HIV reverse transcriptase assessed as incorporation of [3H]dTMP at 0.6 uM.

The term inhibition denotes the percentage by which the read-out fell short of the control. On to `O=C(O[C@@H]1C[C@](O)(C(=O)O)C[C@@H](OC(=O)c2cc(O)c(O)c(O)c2)[C@H]1OC(=O)c1cc(O)c(O)c(O)c1)c1cc(O)c(O)c(O)c1`, for which the Activity entry in the series with H9 [1] and in the series on H9 [2] was “Non-toxic” throughout. The compound further showed an inhibition at 1.5 µM in series [3] of 26%. In addition, the inhibition in series [4] came to 58%; in series [5], 39%; in series [7] it was 48%. For the same compound, in [6], the inhibition at 7.7 µM worked out at 59%. For the same compound, the cytotoxicity at 25 µM in series [8] is 14%. In addition, in series [9], 30.8 µM produced 70% inhibition.

With `O=C(O[C@@H]1C[C@](OC(=O)c2cc(O)c(O)c(O)c2)(C(=O)O)C[C@@H](OC(=O)c2cc(O)c(O)c(O)c2)[C@H]1OC(=O)c1cc(O)c(O)c(O)c1)c1cc(O)c(O)c(O)c1`, the Activity result in the series with H9 [1] and with H9 [2] was “Non-toxic” throughout. The compound further had an inhibition at 25 µM in series [10] of 66%. Moreover, 1.25 µM produced 15% inhibition in series [11]. Besides, the inhibition in series [4] was found to be 94%; in [5], 36%; in series [7], 84%. Besides, in [12], the inhibition at 6.25 µM was found to be 52%. The cytotoxicity at 25 µM in series [8] came to 25%.

With `Cc1cn([C@H]2C[C@H](N=[N+]=[N-])[C@@H](COP(=O)(O)OP(=O)(O)OP(=O)(O)O)O2)c(=O)[nH]c1=O`, the inhibition in series [13] worked out at 64%.

Turning to `O=C(Oc1c(O)cc(C(=O)O[C@@H]2C[C@](O)(C(=O)O)C[C@@H](OC(=O)c3cc(O)c(O)c(O)c3)[C@H]2OC(=O)c2cc(O)c(O)c(O)c2)cc1O)c1cc(O)c(O)c(O)c1`, the Activity entry with H9 [1] and in the series on H9 [2] was “Non-toxic” in each case. This compound displayed an inhibition at 25 µM in [10] of 61%. Also, 1.25 µM produced 13% inhibition in series [11]. The results for the inhibition in [4], in series [5] and in series [7] were 84%, 50% and 63%, respectively. Also, in [12], the inhibition at 6.25 µM worked out at 44%. In addition, the cytotoxicity at 25 µM in series [8] came out at 25%.

In the case of `O=C(Oc1c(O)cc(C(=O)O[C@H]2[C@H](OC(=O)c3cc(O)c(O)c(O)c3)C[C@](O)(C(=O)O)C[C@H]2OC(=O)c2cc(O)c(O)c(O)c2)cc1O)c1cc(O)c(O)c(O)c1`, the Activity entry in the series on H9 [1] and with H9 [2] was “Non-toxic” throughout. This compound registered an inhibition at 25 µM in series [10] of 71%. In [11], 1.25 µM produced 34% inhibition. The figures for the inhibition in series [4], in series [5] and in series [7] were 90%, 53% and 73%, respectively. In series [12], this compound registered an inhibition at 6.25 µM of 57%. In series [8], the cytotoxicity at 25 µM amounted to 14%.

With `O=C(Oc1c(O)cc(C(=O)O[C@@H]2C[C@@](O)(C(=O)O)C[C@@H](OC(=O)c3cc(O)c(O)c(O)c3)[C@@H]2OC(=O)c2cc(O)c(O)c(O)c2)cc1O)c1cc(O)c(O)c(O)c1`, the Activity entry in the series on H9 [1] and with H9 [2] was “Non-toxic” each time. This compound also had an inhibition at 25 µM in [10] of 63%. The ID50 in [14] was determined as 29 µM; in series [15], 2.5 µM; in [16] it was 21 µM; in series [17] it was 0.065 µM. Also, in [11], the inhibition at 1.25 µM turned out to be 28%. For the same compound, the inhibition in series [4] was 89%; in series [5] it was 55%; in series [7], 70%. Moreover, 6.25 µM produced 50% inhibition in [12]. In addition, in series [8], the cytotoxicity at 25 µM came out at 0%.

For the compound `O=C(OC[C@H]1O[C@@H](OC(=O)c2cc(O)c(O)c(OC(=O)c3cc(O)c(O)c(O)c3)c2)[C@H](OC(=O)c2cc(O)c(O)c(OC(=O)c3cc(O)c(O)c(O)c3)c2)[C@@H](OC(=O)c2cc(O)c(O)c(OC(=O)c3cc(O)c(O)c(O)c3)c2)[C@@H]1OC(=O)c1cc(O)c(O)c(OC(=O)c2cc(O)c(O)c(O)c2)c1)c1cc(O)c(O)c(OC(=O)c2cc(O)c(O)c(O)c2)c1`, the inhibition in series [18] was determined as 74%.

Turning to `O=C(O)P(=O)(O)O`, the inhibition in series [19] was 63%.

The record behind these values is ChEMBL document CHEMBL1151134, “Anti-AIDS agents, 1. Isolation and characterization of four new tetragalloylquinic acids as a new class of HIV reverse transcriptase inhibitors from tannic acid” (J Nat Prod, 1989).
